The experiment deals with BDF1 mice, B16 melanoma ip, median survival T/C. Put plainly: NCI In Vivo Anticancer Drug Screen. Data for tumor model B16 Melanoma (intraperitoneal) in B6D2F1 (BDF1) mice. The settings on record: endpoint: median survival time, higher = longer survival. In short, it runs like this: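 Each result divides a survival or tumor-size measurement in the compound-treated group by the same measurement in the vehicle group.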

The mark [1] stands for this setting: dose: 50.0 mg/kg/injection, schedule: Q01DX009 (ip), vehicle: saline.
[2] abbreviates: dose: 100.0 mg/kg/injection, schedule: Q01DX009 (ip), vehicle: other.
Setting [3] is: dose: 100.0 mg/kg/injection, schedule: Q01DX009 (ip), vehicle: saline.
Where [4] appears, read: dose: 200.0 mg/kg/injection, schedule: Q01DX009 (ip), vehicle: other.
Setting [5] is: dose: 200.0 mg/kg/injection, schedule: Q01DX009 (ip), vehicle: saline.
[6] abbreviates: dose: 400.0 mg/kg/injection, schedule: Q01DX009 (ip), vehicle: saline.
Where [7] appears, read: dose: 25.0 mg/kg/injection, schedule: Q01DX009 (ip), vehicle: saline.
Where [8] appears, read: dose: 25.0 mg/kg/injection, schedule: Q01DX009 (ip), vehicle: Klucel (hydroxypropylcellulose) (HPC).
Where [9] appears, read: dose: 100.0 mg/kg/injection, schedule: Q01DX009 (ip), vehicle: Klucel (hydroxypropylcellulose) (HPC).
Setting [10] is: dose: 200.0 mg/kg/injection, schedule: Q01DX009 (ip), vehicle: Klucel (hydroxypropylcellulose) (HPC).
[11] abbreviates: dose: 400.0 mg/kg/injection, schedule: Q01DX009 (ip), vehicle: Klucel (hydroxypropylcellulose) (HPC).
Where [12] appears, read: dose: 6.25 mg/kg/injection, schedule: Q01DX009 (ip), vehicle: saline with Tween-80.
Where [13] appears, read: dose: 100.0 mg/kg/injection, schedule: Q01DX009 (ip), vehicle: saline with Tween-80.
The mark [14] stands for this setting: dose: 200.0 mg/kg/injection, schedule: Q01DX009 (ip), vehicle: saline with Tween-80.
Where [15] appears, read: dose: 400.0 mg/kg/injection, schedule: Q01DX009 (ip), vehicle: saline with Tween-80.
Where [16] appears, read: dose: 50.0 mg/kg/injection, schedule: Q01DX009 (ip), vehicle: Klucel (hydroxypropylcellulose) (HPC).

The structures appear in SMILES notation. Values joined by “and” are separate entries in the source; they are usually repeats but may differ in a detail not shown here. Identical values can stand only once. Inconclusive results and toxic doses are left out. Peptide text beside a SMILES is read from it. * marks the point of attachment. Bn = c1ccc(C*)cc1

For `[N-]=[N+]=CC(=O)NCC(=O)NN`, the T/C is 111 % of control (dose: 50.0 mg/kg/injection, schedule: Q01DX009 (ip), vehicle: other); 110 % of control under setting [1]; 106 % of control under setting [2]; 113 % of control under setting [3]; 120 % of control under setting [4]; 123 % of control under setting [5]. Moreover, the T/C runs as follows: (dose: 300.0 mg/kg/injection, schedule: Q01DX009 (ip), vehicle: other) 166 % of control; under setting [6], 150 % of control; (dose: 500.0 mg/kg/injection, schedule: Q01DX009 (ip), vehicle: other) 86 % of control; (dose: 600.0 mg/kg/injection, schedule: Q02DX005 (ip), vehicle: other) 156 % of control.
Turning to `CSc1sc2ccccc2[n+]1C`, the T/C under setting [7] is 100 % of control, the T/C under setting [1] was 98 % of control and the T/C under setting [3] is 91 % of control.
Turning to `COC(=O)C(CC(C)C)NC(=O)C(N)Cc1ccc(OCc2ccccc2)cc1` (stereo unspecified) (H-Tyr(Bn)-Leu-OMe; configuration not given here), the T/C runs as follows: (dose: 12.5 mg/kg/injection, schedule: Q01DX009 (ip), vehicle: Klucel (hydroxypropylcellulose) (HPC)) 110 % of control; under setting [8], 96 % of control.
For `CCCCCCC(=O)CCCC`, the T/C was 98 % of control under setting [2] and 100 % of control under setting [4].
Take `C[CH2][Pb]([CH2]C)([CH2]C)[O]C(=O)c1ccc(N)cc1`: the T/C reads like this: (dose: 0.75 mg/kg/injection, schedule: Q01DX009 (ip), vehicle: Klucel (hydroxypropylcellulose) (HPC)) 111 % of control; (dose: 1.5 mg/kg/injection, schedule: Q01DX009 (ip), vehicle: Klucel (hydroxypropylcellulose) (HPC)) 111 % of control; (dose: 3.0 mg/kg/injection, schedule: Q01DX009 (ip), vehicle: Klucel (hydroxypropylcellulose) (HPC)) 108 % of control; (dose: 6.0 mg/kg/injection, schedule: Q01DX009 (ip), vehicle: Klucel (hydroxypropylcellulose) (HPC)) 111 % of control; (dose: 12.0 mg/kg/injection, schedule: Q01DX009 (ip), vehicle: Klucel (hydroxypropylcellulose) (HPC)) 105 % of control.
Regarding `CN(C)c1ccc(C=Nc2ccc3c(c2)Cc2ccccc2-3)cc1`, the T/C was 106 % of control under setting [9], 93 % of control under setting [10] and 90 % of control under setting [11].
As for `ClC1CCC[N-]C1.ClC1CCC[N-]C1.[Cl][Pt+2]([Cl])([Cl])[Cl]` (stereo unspecified), the T/C was 105 % of control (dose: 0.78 mg/kg/injection, schedule: Q01DX009 (ip), vehicle: saline with Tween-80); 100 % of control (dose: 1.56 mg/kg/injection, schedule: Q01DX009 (ip), vehicle: saline with Tween-80); 97 % of control (dose: 3.13 mg/kg/injection, schedule: Q01DX009 (ip), vehicle: saline with Tween-80); 106 % of control under setting [12].
On to `CCOc1ccccc1NC(=O)c1cc2ccccc2cc1O`, for which the T/C was 115 % of control under setting [3], 118 % of control under setting [5] and 121 % of control under setting [6].
On to `CNC(=O)Oc1ccc2ccccc2c1`, for which the T/C reads like this: under setting [13], 100 % of control; under setting [14], 104 % of control; under setting [15], 93 % of control.
`COc1ccc(Br)cc1`: the T/C is 100 % of control (dose: 50.0 mg/kg/injection, schedule: Q01DX009 (ip), vehicle: saline with Tween-80) and 104 % of control under setting [13].
Regarding `CCCCCCCCCCCCSCCNC(=O)CCl`, the T/C runs as follows: under setting [9], 112 % of control; under setting [10], 100 % of control; under setting [11], 96 % of control.
Take `OCC#CCOCC(O)CCl` (stereo unspecified): the T/C (dose: 25.0 mg/kg/injection, schedule: Q01DX009 (ip), vehicle: water) is 102 % of control; the T/C (dose: 50.0 mg/kg/injection, schedule: Q01DX009 (ip), vehicle: water) was 98 % of control; the T/C (dose: 100.0 mg/kg/injection, schedule: Q01DX009 (ip), vehicle: water) is 92 % of control.
For the molecule `O=c1[nH]cnc2nc(/N=N/SCCO)[nH]c12`, the T/C reads like this: under setting [8], 100 % of control; under setting [16], 103 % of control; under setting [9], 101 % of control; under setting [10], 98 % of control.
For the molecule `COc1cc(C=Nc2ccc(-n3ccnc3C)cc2)ccc1N(CCCl)CCCl`, the T/C (dose: 2.5 mg/kg/injection, schedule: Q01DX009 (ip), vehicle: Klucel (hydroxypropylcellulose) (HPC)) was 105 % of control.
As for `C=CCC(CC)C(=O)Cl` (stereo unspecified), the T/C was 117 % of control (dose: 12.5 mg/kg/injection, schedule: Q04DX003 (ip), vehicle: other); 114 % of control (dose: 25.0 mg/kg/injection, schedule: Q04DX003 (ip), vehicle: other); 96 % of control (dose: 50.0 mg/kg/injection, schedule: Q04DX003 (ip), vehicle: other); 88 % of control (dose: 100.0 mg/kg/injection, schedule: Q04DX003 (ip), vehicle: other).
Take `C=CCc1ccc(C)c(C)c1O`: the T/C (dose: 100.0 mg/kg/injection, schedule: Q04DX003 (sc), vehicle: olive oil, sesame oil, peanut oil) is 91 % of control.
On to `CCCC[P+](c1ccccc1)(c1ccccc1)c1ccccc1`, for which the T/C is, setting by setting: (dose: 6.25 mg/kg/injection, schedule: Q01DX009 (ip), vehicle: saline) 90 % of control; under setting [7], 95 % of control.
For `CCN(CC)Cc1c(C)cc2oc(=O)c3c(c2c1O)CCCC3`, the T/C is 98 % of control (dose: 16.0 mg/kg/injection, schedule: Q01DX009 (ip), vehicle: Klucel (hydroxypropylcellulose) (HPC)); 100 % of control (dose: 32.0 mg/kg/injection, schedule: Q01DX009 (ip), vehicle: Klucel (hydroxypropylcellulose) (HPC)); 88 % of control (dose: 64.0 mg/kg/injection, schedule: Q01DX009 (ip), vehicle: Klucel (hydroxypropylcellulose) (HPC)).
In the case of `COc1ccc(-c2c(CC(=O)O)c3cc(OC)ccc3n2Cc2ccc(Cl)cc2)cc1`, the T/C reads like this: under setting [9], 95 % of control; (dose: 100.0 mg/kg/injection, schedule: Q04DX003 (ip), vehicle: saline with Tween-80) 100 % of control; under setting [10], 94 % of control; (dose: 200.0 mg/kg/injection, schedule: Q04DX003 (ip), vehicle: saline with Tween-80) 95 % of control; under setting [11], 95 % of control; (dose: 400.0 mg/kg/injection, schedule: Q04DX003 (ip), vehicle: saline with Tween-80) 95 % of control.
Consider `CCC/C=C/C=C/C1CC(O)C(O)C(=O)C1C=O` (stereo unspecified), for which the T/C reads like this: (dose: 1.6 mg/kg/injection, schedule: Q01DX009 (ip), vehicle: saline with Tween-80) 105 % of control; (dose: 3.12 mg/kg/injection, schedule: Q01DX009 (ip), vehicle: saline with Tween-80) 104 % of control; under setting [12], 98 % of control; (dose: 12.5 mg/kg/injection, schedule: Q01DX009 (ip), vehicle: saline with Tween-80) 98 % of control and 100 % of control.
For `COc1cc(O)c(Cc2ccccc2O)c(O)c1C(=O)CCc1ccccc1`, the T/C is 100 % of control (dose: 1.25 mg/kg/injection, schedule: Q01DX009 (ip), vehicle: other); 100 % of control (dose: 2.5 mg/kg/injection, schedule: Q01DX009 (ip), vehicle: other); 92 % of control (dose: 5.0 mg/kg/injection, schedule: Q01DX009 (ip), vehicle: other); 100 % of control (dose: 10.0 mg/kg/injection, schedule: Q01DX009 (ip), vehicle: other).
With `O=C1c2cc(Br)cc(Br)c2NCCCC1(Br)Br`, the T/C by setting is: (dose: 75.0 mg/kg/injection, schedule: Q04DX003 (ip), vehicle: Klucel (hydroxypropylcellulose) (HPC)) 102 % of control; (dose: 150.0 mg/kg/injection, schedule: Q04DX003 (ip), vehicle: Klucel (hydroxypropylcellulose) (HPC)) 95 % of control; (dose: 300.0 mg/kg/injection, schedule: Q04DX003 (ip), vehicle: Klucel (hydroxypropylcellulose) (HPC)) 96 % of control.
As for `C=CCCOC(C)=O`, the T/C by setting is: under setting [16], 100 % of control; under setting [9], 108 % of control; under setting [10], 108 % of control.
For `c1ccc(-c2nc3ccc4ccccc4c3nc2-c2ccccc2)cc1`, the T/C reads like this: under setting [13], 100 % of control; under setting [14], 118 % of control; under setting [15], 95 % of control.

The record behind these values is PubChem BioAssay AID192 (DTP/NCI, 2004).
